pIC50: −log10 of the molar value.
Tests used:
CDK9/CycT1 = CDK9/CycT1 (Homo sapiens, UniProt P50750); experiment: CDK9/CycT1 kinase assay; assay type: biochemical
CDK2/CycE = CDK2/CycE kinase assay; assay type: biochemical, human; settings: ratio of IC50 values CDK2/CDK9, in-house assays
HeLa cells = experiment: Proliferation assay HeLa; assay type: cell-based; settings: Homo sapiens, 96 h, read-out: HeLa IC50
MOLM‐13 human AML model = experiment: MOLM‐13 human AML xenograft model in mice; assay type: in vivo, mouse; settings: for T/C ratio: end of the experiment
MOLM‐13 cells = experiment: Proliferation assay MOLM‐13; assay type: cell-based; settings: Homo sapiens, MOLM-13, 96 h, read-out: MOLM‐13 IC50
[1] = Metabolic stability in human liver microsomes; assay type: in vitro ADME
[2] = Metabolic stability in mouse liver microsomes; assay type: in vitro ADME
[3] = Metabolic stability in rat liver microsomes; assay type: in vitro ADME; settings: rat, liver microsomes

Sequence of CDK9/CycT1 (P50750 whole entry): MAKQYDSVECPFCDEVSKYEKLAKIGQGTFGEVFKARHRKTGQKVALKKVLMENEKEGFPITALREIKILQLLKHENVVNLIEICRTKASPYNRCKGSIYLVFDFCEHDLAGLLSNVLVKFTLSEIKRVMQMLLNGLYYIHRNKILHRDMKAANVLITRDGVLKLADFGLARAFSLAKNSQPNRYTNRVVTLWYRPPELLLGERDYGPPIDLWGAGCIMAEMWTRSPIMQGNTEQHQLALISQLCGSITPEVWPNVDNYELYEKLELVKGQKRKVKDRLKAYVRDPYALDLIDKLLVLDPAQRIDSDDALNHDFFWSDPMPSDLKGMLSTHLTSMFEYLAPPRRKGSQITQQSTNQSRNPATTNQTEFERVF
Sequence of CDK9/CycT1 (O60563 whole entry partner): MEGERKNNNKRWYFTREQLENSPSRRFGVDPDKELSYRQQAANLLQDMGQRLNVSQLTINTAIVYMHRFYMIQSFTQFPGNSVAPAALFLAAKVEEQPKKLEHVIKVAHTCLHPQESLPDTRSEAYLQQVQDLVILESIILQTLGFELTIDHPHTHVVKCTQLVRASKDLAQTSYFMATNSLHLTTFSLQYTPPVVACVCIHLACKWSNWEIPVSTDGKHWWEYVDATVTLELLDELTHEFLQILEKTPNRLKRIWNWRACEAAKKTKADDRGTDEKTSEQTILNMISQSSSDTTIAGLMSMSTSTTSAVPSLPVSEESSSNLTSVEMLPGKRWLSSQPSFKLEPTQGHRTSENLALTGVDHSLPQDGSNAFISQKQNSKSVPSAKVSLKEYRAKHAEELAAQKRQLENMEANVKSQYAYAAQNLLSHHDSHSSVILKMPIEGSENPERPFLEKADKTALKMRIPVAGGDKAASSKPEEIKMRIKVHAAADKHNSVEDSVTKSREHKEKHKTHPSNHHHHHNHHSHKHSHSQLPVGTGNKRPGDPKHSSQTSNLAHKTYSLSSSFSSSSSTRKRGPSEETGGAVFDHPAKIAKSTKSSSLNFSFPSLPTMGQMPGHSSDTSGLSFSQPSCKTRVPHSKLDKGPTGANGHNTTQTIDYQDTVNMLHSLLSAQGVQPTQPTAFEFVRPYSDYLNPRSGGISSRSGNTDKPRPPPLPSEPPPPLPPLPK

COc1cc(F)ccc1-c1ncnc(Nc2cccc(C(C)S(C)(=O)=O)c2)n1 (racemic) [Compound 10, (rac)‐4‐(4‐Fluoro‐2‐methoxyphenyl)‐N‐{3‐[1‐(methylsulfonyl)ethyl]phenyl}‐1,3,5‐triazin‐2‐amine]
pIC50 (CDK9/CycT1): 7.07
Selectivity vs. CDK2, ratio of IC50 values (CDK2/CycE): 21
pIC50 (HeLa cells): 5.49

COc1cc(F)ccc1-c1ncnc(Nc2cccc(C(F)S(C)(=O)=O)c2)n1 (racemic) [Compound 12, (rac)‐4‐(4‐Fluoro‐2‐methoxyphenyl)‐N‐{3‐[fluoro(methylsulfonyl)methyl]phenyl}‐1,3,5‐triazin‐2‐amine]
pIC50 (CDK9/CycT1): 7.70
Selectivity vs. CDK2, ratio of IC50 values (CDK2/CycE): 13
pIC50 (HeLa cells): 6.05

COc1cc(F)ccc1-c1ncnc(Nc2cccc(CS(N)(=O)=O)c2)n1.Cl [BAY‐958 hydrochloride, 1‐(3‐{[4‐(4‐Fluoro‐2‐methoxyphenyl)‐1,3,5‐triazin‐2‐yl]amino}phenyl)methanesulfonamide hydrochloride]
T/C ratio (MOLM‐13 human AML model; 30 mg kg^−1 daily oral): 0.16
T/C ratio (MOLM‐13 human AML model; 40 mg kg^−1 daily oral): 0.12
body weight change (MOLM‐13 human AML model; 30 or 40 mg kg^−1 daily oral): less than 10%
fatal toxicities (MOLM‐13 human AML model; 30 or 40 mg kg^−1 daily oral): no fatal toxicities

COc1cc(F)ccc1-c1ncnc(Nc2cccc(CS(C)(=O)=O)c2)n1 [Compound 4, 4‐(4‐Fluoro‐2‐methoxyphenyl)‐N‐{3‐[(methylsulfonyl)methyl]phenyl}‐1,3,5‐triazin‐2‐amine]
pIC50 (MOLM‐13 cells): 6.89

COc1cc(F)ccc1-c1ncnc(Nc2cccc(S(C)(=O)=O)c2)n1 [Compound 5, 4‐(4‐Fluoro‐2‐methoxyphenyl)‐N‐[3‐(methylsulfonyl)phenyl]‐1,3,5‐triazin‐2‐amine]
pIC50 (CDK9/CycT1): 7.49
Selectivity vs. CDK2, ratio of IC50 values (CDK2/CycE): 19
pIC50 (HeLa cells): 5.87

COc1cc(F)ccc1-c1ncnc(Nc2cccc(CCS(C)(=O)=O)c2)n1 [Compound 6, 4‐(4‐Fluoro‐2‐methoxyphenyl)‐N‐{3‐[2‐(methylsulfonyl)ethyl]phenyl}‐1,3,5‐triazin‐2‐amine]
pIC50 (CDK9/CycT1): 7.31
Selectivity vs. CDK2, ratio of IC50 values (CDK2/CycE): 12
pIC50 (HeLa cells): 5.66

COc1cc(F)ccc1-c1ncnc(Nc2ccc3c(c2)S(=O)(=O)CC3)n1 [Compound 7, N‐( 1,1‐Dioxido‐2,3‐dihydro‐1‐benzothien‐6‐yl)‐4‐(4‐fluoro‐2‐methoxyphenyl)‐1,3,5‐triazin‐2‐amine]
pIC50 (CDK9/CycT1): 8.15
Selectivity vs. CDK2, ratio of IC50 values (CDK2/CycE): 22
pIC50 (HeLa cells): 6.26

COc1cc(F)ccc1-c1ncnc(Nc2ccc3c(c2)CS(=O)(=O)C3)n1 [Compound 8, N‐( 2,2‐Dioxido‐1,3‐dihydro‐2‐benzothien‐5‐yl)‐4‐(4‐fluoro‐2‐methoxyphenyl)‐1,3,5‐triazin‐2‐amine]
pIC50 (CDK9/CycT1): 7.29
Selectivity vs. CDK2, ratio of IC50 values (CDK2/CycE): <1
pIC50 (HeLa cells): 4.96

COc1cc(F)ccc1-c1ncnc(Nc2cccc(CS(=O)(=O)C(C)(C)C)c2)n1 [Compound 9, N ‐{3‐[(tertButylsulfonyl)methyl]phenyl}‐4‐(4‐fluoro‐2‐methoxyphenyl)‐1,3,5‐triazin‐2‐amine]
Selectivity vs. CDK2, ratio of IC50 values (CDK2/CycE): 43
pIC50 (HeLa cells): 5.54

COc1cc(F)ccc1-c1ncnc(Nc2cccc(C(C)(C)S(C)(=O)=O)c2)n1 [Compound 11, 4‐(4‐Fluoro‐2‐methoxyphenyl)‐N‐{3‐[2‐(methylsulfonyl)propan‐2‐yl]phenyl}‐1,3,5‐triazin‐2‐amine]
pIC50 (CDK9/CycT1): 6.00
Selectivity vs. CDK2, ratio of IC50 values (CDK2/CycE): >20

COc1cc(F)ccc1-c1ncnc(Nc2cccc(C(F)(F)S(C)(=O)=O)c2)n1 [Compound 13, N ‐{3‐[Difluoro(methylsulfonyl)methyl]phenyl}‐4‐(4‐fluoro‐2‐methoxyphenyl)‐1,3,5‐triazin‐2‐amine]
pIC50 (CDK9/CycT1): 7.17
Selectivity vs. CDK2, ratio of IC50 values (CDK2/CycE): 19
pIC50 (HeLa cells): 5.38

COc1ccccc1-c1ncnc(Nc2cccc(CS(N)(=O)=O)c2)n1 [Compound 14, 1‐(3‐{[4‐(2‐Methoxyphenyl)‐1,3,5‐triazin‐2‐yl]amino}phenyl)methanesulfonamide]
pIC50 (CDK9/CycT1): 7.64
Selectivity vs. CDK2, ratio of IC50 values (CDK2/CycE): 62
pIC50 (HeLa cells): 5.80

COc1cc(Cl)ccc1-c1ncnc(Nc2cccc(CS(N)(=O)=O)c2)n1 [Compound 15, 1‐(3‐{[4‐(4‐Chloro‐2‐methoxyphenyl)‐1,3,5‐triazin‐2‐yl]amino}phenyl)methanesulfonamide]
pIC50 (CDK9/CycT1): 7.57
Selectivity vs. CDK2, ratio of IC50 values (CDK2/CycE): 108
pIC50 (HeLa cells): 5.42

COc1cnccc1-c1ncnc(Nc2cccc(CS(N)(=O)=O)c2)n1 [Compound 16, 1‐(3‐{[4‐(3‐Methoxypyridin‐4‐yl)‐1,3,5‐triazin‐2‐yl]amino}phenyl)methanesulfonamide]
pIC50 (CDK9/CycT1): 5.74
Selectivity vs. CDK2, ratio of IC50 values (CDK2/CycE): 14

NS(=O)(=O)Cc1cccc(Nc2ncnc(-c3ccc(F)cc3O)n2)c1 [Compound 17, 1‐(3‐{[4‐(4‐Fluoro‐2‐hydroxyphenyl)‐1,3,5‐triazin‐2‐yl]amino}phenyl)methanesulfonamide]
pIC50 (CDK9/CycT1): 6.89
Selectivity vs. CDK2, ratio of IC50 values (CDK2/CycE): 6
pIC50 (HeLa cells): 5.54

NS(=O)(=O)Cc1cccc(Nc2ncnc(-c3ccc(F)cc3F)n2)c1 [Compound 18, 1‐(3‐{[4‐(2,4‐Difluorophenyl)‐1,3,5‐triazin‐2‐yl]amino}phenyl)methanesulfonamide]
pIC50 (CDK9/CycT1): 6.57
Selectivity vs. CDK2, ratio of IC50 values (CDK2/CycE): 16
pIC50 (HeLa cells): < 5.52

NS(=O)(=O)Cc1cccc(Nc2ncnc(-c3ccccc3OC(F)(F)F)n2)c1 [Compound 19, 1‐[3‐({4‐[2‐(Trifluoromethoxy)phenyl]‐1,3,5‐triazin‐2‐yl}amino)phenyl]methanesulfonamide]
pIC50 (CDK9/CycT1): 6.21
Selectivity vs. CDK2, ratio of IC50 values (CDK2/CycE): 20
pIC50 (HeLa cells): < 5.52

COCc1ccccc1-c1ncnc(Nc2cccc(CS(N)(=O)=O)c2)n1 [Compound 20, 1‐[3‐({4‐[2‐(Methoxymethyl)phenyl]‐1,3,5‐triazin‐2‐yl}amino)phenyl]methanesulfonamide]
pIC50 (CDK9/CycT1): 5.77
Selectivity vs. CDK2, ratio of IC50 values (CDK2/CycE): >11

CC(=O)Nc1cc(F)ccc1-c1ncnc(Nc2cccc(CS(N)(=O)=O)c2)n1 [Compound 21, N ‐[5‐Fluoro‐2‐(4‐{[3‐(sulfamoylmethyl)phenyl]amino}‐1,3,5‐triazin‐2‐yl)phenyl]acetamide]
Selectivity vs. CDK2, ratio of IC50 values (CDK2/CycE): <1
pIC50 (HeLa cells): 5.52

NS(=O)(=O)Cc1cccc(Nc2ncnc(-c3ccc(F)cc3C(F)(F)F)n2)c1 [Compound 22, 1‐[3‐({4‐[4‐Fluoro‐2‐(trifluoromethyl)phenyl]‐1,3,5‐triazin‐2‐yl}amino)phenyl]methanesulfonamide]
Selectivity vs. CDK2, ratio of IC50 values (CDK2/CycE): 1

NS(=O)(=O)Cc1cccc(Nc2ncnc(-c3ccc(F)cc3OCc3ccccc3)n2)c1 [Compound 23, 1‐[3‐({4‐[2‐(Benzyloxy)‐4‐fluorophenyl]‐1,3,5‐triazin‐2‐yl}amino)phenyl]methanesulfonamide]
pIC50 (CDK9/CycT1): 8.40
recovery at 60 min [1]: 0%
recovery at 60 min [2]: 0.2%
recovery at 60 min [3]: 0%
Selectivity vs. CDK2, ratio of IC50 values (CDK2/CycE): 34
pIC50 (HeLa cells): 7.00

From article PMC5698704 (Chemmedchem, 2017)
